Legend:
[1] = published half-life; cited from earlier work
[2] = Comparison of in vitro screens: overlapping effective and nontoxic range; settings: for Overlapping effective and nontoxic range: inhibits with minimal or no toxicity to synovium or cartilage, overlapping range if effective in more than one assay;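 on all read-outs here: compares non-toxic ranges in synovial cells and chondrocytes with effective ranges against NFkB, MMP-13 and osteoclasts, giving their overlap as the predicted efficacy range in uM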
[3] = test system: RAW 264.7 cells; experiment: RANKL-mediated osteoclastogenesis / matrix resorption (Osteologic) assay; assay type: cell-based, murine; settings: for minimal effective concentration: Mus musculus, RAW264.7, 168 h, read-out: Lowest inhibitory concentration, matrix resorption
Method in brief: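 Agents were tested during or after differentiation. Wells were bleached and resorption pits were quantified by image analysis versus RANKL-only controls, using an unpaired t-test.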

[4] = test system: MIA rat model of OA; experiment: MIA trial 3 digital Randall-Selitto test (weekly i.a. clonidine 4.5 μg, tacrolimus 30 ng, fluocinolone 15 ng, meloxicam 100 μg, tranilast 500 ng, TH 150 μg; clonidine 100 μg/kg s.c.); assay type: in vivo
Procedure: The digital Randall-Selitto (dRS) test is said to be a reliable and repeatable measure of neuropathic, bone, and inflammatory pain behavior in several different models, including those of arthritic or joint pain [29, 31, 32]. Baseline and posttreatment values were evaluated using a dRS test device (IITC Life Science, Woodland Hills, CA, USA). Animals were allowed to acclimate to the testing room before all experimentation and for a minimum of 30 minutes before testing. To ensure that their hind limbs were accessible, the animals were gently suspended in a restraint sling. The joint compression threshold was measured once at each time point for the ipsilateral and contralateral knee joints. Pressure was applied gradually over approximately 10 seconds to the medial and lateral aspects of the knee joint. Measurements were taken from the first observed behavior of vocalization, struggle, or withdrawal. A cutoff value of 600 g was used to prevent injury to the animal.
Following isoflurane anesthesia, 50 μl (2 mg) of MIA was injected into the synovial space of the left knee. Animals were randomly assigned to groups, and pain behavior was assessed 7, 14, 21, and 28 days following MIA injection and intervention using WB with the Stoelting incapacitance meter (trial 1) or the dRS test (trials 2 and 3). […] Animals received MIA treatment and then saline control or therapeutic. […] Histopathology was performed at each time point and at study termination. All studies were conducted in accordance with the International Association for the Study of Pain Guidelines and were approved by the Algos Therapeutics, Inc. Institutional Animal Care and Use Committee (IACUC) before initiation. Those running the studies were blind to the treatments. See Additional file 1 for further details. […]
struggle or withdrawal. A cut-off value of 600 g was used to prevent injury to the animal. The mean and standard error of the mean (SEM) were determined for each treatment group.
Statistical significance was assigned as p ≤ 0.05. The stability of the vehicle group over time was assessed on each testing day (Days 7, 14, 21, and 28) using repeated measures one-way analysis of variance (ANOVA) comparing joint compression thresholds at each experimental time point on a given testing day versus that testing day’s pre-treatment value. Osteoarthritis-related pain in the vehicle group was estimated at each time point on each testing day by comparing ipsilateral (injured) to contralateral (normal) joint compression thresholds using paired t-tests. The progression of osteoarthritis-related pain in the vehicle group was estimated by comparing pre-treatment joint compression thresholds on each testing day versus pre-MIA measurements using repeated measures one-way ANOVA. […]
thresholds at each experimental time point on a given testing day with vehicle treated animals using an unpaired t-test. The acute effect of Tacrolimus was analyzed by comparing joint compression thresholds at each time point on a given testing day with the corresponding pre-treatment baseline values using repeated measures one-way ANOVA and compared to vehicle treated animals using […]
values using repeated measures one-way ANOVA. Chronic effects were analyzed by comparing pre-treatment joint compression thresholds on each testing day versus the appropriate Day 7 pre-treatment values using repeated measures one-way ANOVA and by comparing pre-treatment joint compression thresholds with vehicle treated animals on each testing day using an unpaired t-test or one-way ANOVA. Day 7 pre-treatment joint compression thresholds between all groups were assessed using one-way ANOVA. The Dunnett’s multiple comparison post hoc test was used when […]
dosing were housed three per cage. Animals had free access to food and water and were maintained […]
The animal colony was maintained at approximately 21 °C. All experiments were conducted in accordance with the International Association for the Study of Pain Guidelines.

[5] = test system: Normal human articular chondrocytes; experiment: Cytotoxicity to chondrogenic pellets (CellTiter-Blue)
Procedure: Differentiated chondrogenic pellets were used both to test the ability of drugs to block MMP-13 activity and to test for drug toxicity. […] Supernatants were collected and analyzed for MMP-13 using an enzyme-linked immunosorbent assay (GE Healthcare Life Sciences, Little Chalfont, UK). Cytotoxicity to pellets was assessed using CellTiter-Blue (Promega).

[6] = test system: SW982; experiment: Synovial toxicity (CellTiter-Glo), with or without TNF-α
Procedure: Viability was measured with the CellTiter-Glo luminescent viability assay (Promega). […] To more accurately predict the effects of the drugs on osteoarthritic synovium, cells were tested with or without TNF-α (20 ng/ml; BioSource).
In Vitro Toxicity Testing with a Synovial Cell Line
Compounds were tested for synovial toxicity using SW982 cells alone or in the presence of TNF as

Structure (SMILES) | t 1/2 [1] | Non-toxic & predicted range of efficacy [2] | Overlapping effective and nontoxic range [2] | minimal effective concentration [3] | dRS, hours after dosing with significant difference ([4]; day 14) | dRS, hours after dosing with significant difference ([4]; day 21) | Non-toxic range (Chondrocyte) [5] | Non-toxic range (Synovial) [6] | t 1/2 intestinal [1] | t 1/2 plasma [1] | Lowest inhibitory concentration, matrix resorption [3] | dRS, hours after dosing with significant difference ([4]; day 7) | Effective range against Osteoclasts [3] | dRS, hours after dosing with significant difference ([4]; day 28, negative = worse)
COc1ccc(C=CC(=O)Nc2ccccc2C(=O)O)cc1OC [Tranilast, N-(3′,4′-dimethoxycinnamoyl)anthranilic acid] | Anti-inflammatory and analgesic properties in collagen-induced arthritis (RA model) [34]. Suppresses COX-2 and iNOS expression, reduces PGE2 and iNOS-derived NO production in stimulated macrophages. Diminishes TNF-α and IL-1β production [35]. T1/2 = 7.4 h | 1 to 8 µM | 1 to 8 µM | 0.5 µM | 1 h | 1 h | 125000 to 8e+06 µM | 0.125 to 8 µM | – | – | – | – | – | –
COc1cc(/C=C/C(=O)CC(=O)/C=C/c2ccc(O)c(OC)c2)ccc1O [Curcumin, Diferuloylmethane] | – | – | – | – | – | – | 0.84 to 27 µM | 1.7 to 54 µM | 10 min | 30 to 50 min | – | – | – | –
Clc1cccc(Cl)c1N=C1NCCN1 [Clonidine] | α2-Receptor agonist and antihypertensive agent Possible induction of iNOS through NF-κB [77] t 1/2 = 6–20 h | – | 10 to 100 µM | – | – | – | 0.156 to 100 µM | 1.56 to 100 µM | – | – | 10 µM | 1 h | – | –
CC1=C(CO)C(=O)O[C@@H]([C@@H](C)[C@H]2CC[C@H]3[C@@H]4C[C@H]5O[C@]56[C@@H](O)C=CC(=O)[C@]6(C)[C@H]4CC[C@]23C)C1 [Withaferin A] | Reportedly inhibits NF-κB activation by preventing the TNF-α-induced activation of IKK-β (IKK-2) [102] Blocks osteoclastogenesis of bone remodeling [103] t 1/2 = 1.36 h | 0.27 to 2.1 µM | 4.25 to 17 µM | 0.53 µM | – | – | 0.27 to 2.1 µM | Toxic | – | – | – | – | – | –
CC1(C)O[C@@H]2C[C@H]3[C@@H]4C[C@H](F)C5=CC(=O)C=C[C@]5(C)[C@@]4(F)[C@@H](O)C[C@]3(C)[C@]2(C(=O)CO)O1 [Fluocinolone, Fluocinolone Acetonide] | Corticosteroid (potent) Blocks IL-1 and TNF production and TNF-induced apoptosis [92] t 1/2 = 1.3 – 1.7 h | 3.1 to 250 µM | 3.1 to 100 µM | 0.00977 µM | – | – | 1.56 to 250 µM | 1.56 to 100 µM | – | – | – | 1 h | ≥ 9.77 nM | -24 h
C=CC[C@@H]1/C=C(\C)C[C@H](C)C[C@H](OC)[C@H]2O[C@@](O)(C(=O)C(=O)N3CCCC[C@H]3C(=O)O[C@H](/C(C)=C/[C@@H]3CC[C@@H](O)[C@H](OC)C3)[C@H](C)[C@@H](O)CC1=O)[C@H](C)C[C@@H]2OC [Tacrolimus] | – | 25 to 50 µM | 50 µM | 0.0026 µM | – | – | 0.8 to 50 µM | 1.5 to 100 µM | – | – | – | – | – | –
CC(C)(C)CC(=O)OCC(=O)[C@@]12OC(C)(C)O[C@@H]1C[C@H]1[C@@H]3CCC4=CC(=O)C=C[C@]4(C)[C@@]3(F)[C@@H](O)C[C@@]12C [Triamcinolone hexacetonide] | Steroid t 1/2 = 88 min | – | 62.5 to 3750 µM | 0.297 µM | 1 h | Pretrt^f | – | 3.12 to 400 µM | – | – | – | 3 h | – | -24 h
